Here are results for six molecules from US12065436B2, “Cardiac sarcomere inhibitors” (Cytokinetics, Inc., priority 2018, dated 2024).

SMILES strings stand for the structures. Where two headings read alike, the source gives them in different places.

The target of experiment [1] is bovine cardiac myofibrils (full-length cardiac myosin ATPase in the native sarcomere) (Bos taurus (Bovine), UniProt Q9BE39). Put plainly: Skinned bovine cardiac myofibril ATPase assay (PK/LDH-coupled). The experiment is classed as biochemical. Particulars: Ca2+ activating to 75% of maximal rate; for CDMF75 IC15: concentration giving 15% inhibition; for IC50: read-out: CDMF75 IC50. The method in brief: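 Triton-skinned bovine left-ventricle myofibrils (1 mg/mL) in PM 12 buffer (12 mM PIPES, 2 mM MgCl2, pH 6.8) with 50 μM ATP, 0.6 mM EGTA and CaCl2 set for 50% or 75% activation. Steady-state ATPase inhibition followed by PK/LDH-coupled NADH oxidation at 340 nm.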

Experiment [2] concerns adult cardiac ventricular rat myocytes. Put plainly: Adult ventricular myocyte contractility (fractional shortening). The experiment is classed as cell-based. Particulars: 5 min, 5 min perfusion, read-out: % FS (% reduction from baseline) ± SEM; for inhibition at 10 µM: 10 μM compound; for inhibition at 5 µM: 5 μM compound. As to the method: Adult male Sprague-Dawley rats were anesthetized and the hearts were quickly excised, rinsed and the ascending aorta was cannulated. Continuous retrograde perfusion was initiated on the hearts at a perfusion pressure of 60 cm H2O. Hearts were first perfused with a nominally Ca^2+-free modified Krebs solution of the following composition: 113 mM NaCl, 4.7 mM KCl, 0.6 mM KH2PO4, 0.6 mM Na2HPO4, 1.2 mM MgSO4, 12 mM NaHCO3, 10 mM KHCO3, 30 mM taurine, 5.5 mM glucose and 10 mM Hepes (all Sigma). This medium is not recirculated and is continually aerated with a 95% O2/5% CO2 mixture. After approximately 3 minutes the heart was perfused with a modified Krebs buffer supplemented with collagenase (Worthington) and 12.5 μM final calcium concentration. The heart was removed from the cannulae after the heart appeared blanched and soft in appearance. The atria and vessels were removed and the ventricles were gently dissected into smaller pieces with forceps. The tissue was homogenized by repeated pipette trituration and the collagenase reaction was stopped by 10% bovine calf serum (BCS), sedimentation and resuspension in perfusion buffer containing 5% BCS and 12.5 uM CaCl2). Myocytes were made calcium tolerant by stepwise addition of a CaCl2) solution to a final concentration of 1.2 mM. Cells were then washed and resuspended in Tyrode's buffer (137 mM NaCl, 3.7 mM KCl, 0.5 mM MgCl, 11 mM glucose, 4 mM Hepes, and 1.2 mM CaCl2), pH 7.4). Cells were kept for 60 min at 37° C. prior to initiating experiments and used within 5 hrs of isolation. […] Additionally, only cells whose basal contractility was between 3 and 8% were used in subsequent experiments with compounds.
Aliquots of myocytes in Tyrode's buffer were placed in perfusion chambers (series 20 RC-27NE; Warner Instruments) complete with heating platforms. Myocytes were allowed to attach, the chambers were heated to 37° C., and the cells were perfused with 37° C. Tyrode's buffer. Myocytes were field stimulated at 1 Hz in with platinum electrodes (20% above threshold). Only cells that had clear striations and were quiescent prior to pacing were used for contractility experiments. To determine basal contractility, myocytes were imaged through a 40× objective. […] Once cell contraction was stable over time, test compounds (0.01-15 μM) were perfused into the chambers on the myocytes for 5 minutes. Contractility of the myocytes and contraction and relaxation velocities were then recorded using edge detection.
Five or more individual myocytes were tested per compound from two or more different myocyte preparations. For each cell, twenty or more contractility transients at basal (defined as 1 min prior to compound infusion) and after compound addition (defined as 5 min after starting compound perfusion), were averaged and compared. These average transients were analyzed using the IonWizard software (IonOptix) to determine changes in diastolic length and fractional shortening. Fractional shortening was calculated as: ((resting length−length at peak contraction) divided by the resting length). The percent change in fractional shortening from baseline was calculated as: ((post-dose fractional shortening/basal fractional shortening)*100). The percent reduction in fractional shortening from baseline was calculated as: (100−percent change in fractional shortening from baseline). Maximum contraction and relaxation velocities (um/sec) was also determined. Results from individual cells are averaged and the SEM calculated.

For experiment [3], the system named is rat cardiac contractility (left ventricle fractional shortening). Put plainly: Echocardiography of acute effect on rat cardiac contractility, oral gavage. To be noted: for inhibition in vivo at 4.5 mg/kg / IC50 / inhibition in vivo at 2 mg/kg / inhibition in vivo at 6 mg/kg / inhibition in vivo at 10 mg/kg: Rattus norvegicus; for inhibition in vivo at 4.5 mg/kg / inhibition in vivo at 2 mg/kg / inhibition in vivo at 6 mg/kg / inhibition in vivo at 10 mg/kg: oral gavage; for IC50 / IC10: oral dosing, estimated; for IC50: plasma concentration at which fractional shortening is 50% of pre-dose baseline; for IC10: plasma concentration at which. The experiment is classed as in vivo, Sprague Dawley rats. As to the method:
(§1) Assessment of in vivo cardiac function by echocardiography was performed in male Sprague Dawley rats under isoflurane (1-3%) anesthesia. 2-D M-mode images of the left ventricle were acquired in the parasternal long-axis view before, during, and after administration of compounds by continuous IV infusion or oral gavage. In vivo fractional shortening was determined by M-mode image analysis with the following calculation: ((End diastolic diameter−end systolic diameter)/end diastolic diameter×100). For continuous IV infusion experiments, three pre-dose baseline M-mode images were taken at 1 minute intervals prior to infusion of compound. Compounds were formulated in 50% Propylene Glycol (PG): 16% Captisol: 10% dimethylacetamide (DMA) and delivered via a jugular vein catheter at the rate of 1 mL/kg/h. During infusion, M-mode images were taken at 5 minute intervals. The infusion stopped when fractional shortening reached up to a 60% reduction from baseline. Blood samples were taken to determine the plasma concentration of the compounds. Data was reported as an estimated IC50 value, which is the concentration at which fractional shortening is 50% of the pre-dose baseline contractility.
For oral dosing studies, three pre-dose baseline M-Mode images were taken at 1 minute intervals prior to compound administration. Compounds were formulated in a 0.5% hydroxypropyl methylcellulose 2910 (HPMC 2910): 0.1% Tween 80 suspension and delivered as a single dose (5 mL/kg) by oral gavage. Rats were lightly anesthetized for M-Mode echocardiography measurements at select time points over a 24 hour period. Different dose levels were evaluated for each compound. The compound effect on cardiac fractional shortening at the highest dose evaluated is presented in Table D as a percent reduction of baseline fractional shortening (=100%).
Concurrent with echocardiography measurements, blood samples were taken to determine the corresponding compound plasma concentration.

Experiment [4] shares this test system. The experiment in a line: Echocardiography of acute effect on rat cardiac contractility, continuous IV infusion. The experiment is classed as in vivo, Sprague Dawley rats. To be noted: Rattus norvegicus, plasma concentration at which fractional shortening is 50% of pre-dose baseline, estimated, read-out: IC50 (Mean ± S.D.). As to the method: as §1
Setting [5] is: 1 h, 1-2 h post dose, read-out: FS (% reduction from baseline) at 1-2 h post dose (Mean ± S.D.).
Setting [6] is: 4 h post dose, read-out: FS (% reduction from baseline) at 4 h post dose (Mean ± S.D.).

Chain of bovine cardiac myofibrils (full-length cardiac myosin ATPase in the native sarcomere) (Q9BE39 whole entry): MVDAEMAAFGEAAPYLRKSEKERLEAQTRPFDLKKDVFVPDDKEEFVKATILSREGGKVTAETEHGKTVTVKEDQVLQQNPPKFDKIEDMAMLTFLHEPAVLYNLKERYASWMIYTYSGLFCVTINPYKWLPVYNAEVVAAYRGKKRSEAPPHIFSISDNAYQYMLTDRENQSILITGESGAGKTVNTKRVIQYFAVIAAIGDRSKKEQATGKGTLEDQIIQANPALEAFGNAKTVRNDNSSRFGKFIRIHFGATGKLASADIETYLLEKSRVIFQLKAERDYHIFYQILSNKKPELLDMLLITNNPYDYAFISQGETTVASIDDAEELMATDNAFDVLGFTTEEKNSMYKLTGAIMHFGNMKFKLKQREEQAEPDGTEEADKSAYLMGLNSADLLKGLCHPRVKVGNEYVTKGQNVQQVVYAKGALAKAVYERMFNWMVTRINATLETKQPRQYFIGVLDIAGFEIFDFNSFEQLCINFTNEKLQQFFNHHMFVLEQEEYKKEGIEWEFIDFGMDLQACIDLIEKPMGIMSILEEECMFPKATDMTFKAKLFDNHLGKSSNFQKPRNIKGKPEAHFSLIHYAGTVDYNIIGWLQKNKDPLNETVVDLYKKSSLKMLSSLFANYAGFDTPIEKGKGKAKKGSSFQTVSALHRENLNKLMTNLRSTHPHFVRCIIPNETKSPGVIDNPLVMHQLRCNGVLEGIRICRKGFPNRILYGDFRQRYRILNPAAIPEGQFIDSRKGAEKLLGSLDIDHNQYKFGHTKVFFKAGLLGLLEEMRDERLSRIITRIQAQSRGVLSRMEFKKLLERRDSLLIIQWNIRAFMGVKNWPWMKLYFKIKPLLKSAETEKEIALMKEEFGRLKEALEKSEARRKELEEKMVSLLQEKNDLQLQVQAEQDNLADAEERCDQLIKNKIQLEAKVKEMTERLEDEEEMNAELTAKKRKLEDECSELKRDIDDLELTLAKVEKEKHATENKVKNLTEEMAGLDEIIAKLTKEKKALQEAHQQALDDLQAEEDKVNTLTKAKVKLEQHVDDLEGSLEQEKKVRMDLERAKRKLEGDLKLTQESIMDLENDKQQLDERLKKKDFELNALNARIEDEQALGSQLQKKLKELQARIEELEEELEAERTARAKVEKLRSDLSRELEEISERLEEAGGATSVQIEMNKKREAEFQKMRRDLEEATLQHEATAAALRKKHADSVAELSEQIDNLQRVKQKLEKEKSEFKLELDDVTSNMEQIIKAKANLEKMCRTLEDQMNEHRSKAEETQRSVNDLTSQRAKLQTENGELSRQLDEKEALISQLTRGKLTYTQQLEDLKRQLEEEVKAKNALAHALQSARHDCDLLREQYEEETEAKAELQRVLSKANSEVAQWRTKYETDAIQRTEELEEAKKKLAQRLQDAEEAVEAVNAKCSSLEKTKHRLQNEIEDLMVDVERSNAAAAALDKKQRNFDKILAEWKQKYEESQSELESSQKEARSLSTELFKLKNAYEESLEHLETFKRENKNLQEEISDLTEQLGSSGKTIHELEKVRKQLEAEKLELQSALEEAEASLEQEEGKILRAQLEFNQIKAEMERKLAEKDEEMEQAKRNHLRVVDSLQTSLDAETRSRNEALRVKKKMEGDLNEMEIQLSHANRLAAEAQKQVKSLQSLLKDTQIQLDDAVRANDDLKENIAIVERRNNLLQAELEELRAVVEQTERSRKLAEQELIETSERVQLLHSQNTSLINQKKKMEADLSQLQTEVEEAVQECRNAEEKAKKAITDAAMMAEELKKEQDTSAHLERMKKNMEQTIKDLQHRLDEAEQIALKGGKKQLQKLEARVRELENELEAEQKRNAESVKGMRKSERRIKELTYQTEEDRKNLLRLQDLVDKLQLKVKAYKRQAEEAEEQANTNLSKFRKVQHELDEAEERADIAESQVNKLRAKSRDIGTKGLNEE
Chain of bovine cardiac myofibrils (full-length cardiac myosin ATPase in the native sarcomere) (P85100 whole entry partner): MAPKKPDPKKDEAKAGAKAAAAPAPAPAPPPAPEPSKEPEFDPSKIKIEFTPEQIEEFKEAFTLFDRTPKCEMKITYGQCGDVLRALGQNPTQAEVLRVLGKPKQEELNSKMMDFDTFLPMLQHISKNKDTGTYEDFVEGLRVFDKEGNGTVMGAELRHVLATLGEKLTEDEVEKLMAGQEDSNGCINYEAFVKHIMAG
Chain of bovine cardiac myofibrils (full-length cardiac myosin ATPase in the native sarcomere) (Q3SZE5 whole entry partner): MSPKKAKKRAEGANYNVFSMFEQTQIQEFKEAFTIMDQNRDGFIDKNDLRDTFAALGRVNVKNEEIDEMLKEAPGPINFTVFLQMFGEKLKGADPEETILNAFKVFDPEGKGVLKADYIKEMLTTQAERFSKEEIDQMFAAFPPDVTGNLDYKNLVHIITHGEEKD

As to `CCc1nc(-c2ccc3c(c2)CC[C@H]3NC(=O)c2cnn(C[C@@H](C)O)c2)no1` [Compound 542, N-[(1R)-5-(5-ethyl-1,2,4-oxadiazol-3-yl)-2,3-dihydro-1H-inden-1-yl]-1-[(2R)-2-hydroxypropyl]-1H-pyrazole-4-carboxamide], the “CDMF75 IC15” value in experiment [1] was determined as 0.9 µM. In addition, the figures for the concentration for half-maximal inhibition (IC50) in experiment [1] and in experiment [3] were 3500 nM and 3.5 µM, respectively. Moreover, the inhibition at 10 µM in experiment [2] was 68.4%. Further, the inhibition in vivo at 4.5 mg/kg in experiment [3] (setting [5]) was 71 ± 1%; in experiment [3] (setting [6]) it was 54 ± 7%. The IC10 (as a rule, the concentration needed for an effect of 10%) in experiment [3] is 0.9 µM.
For `CCc1nc(-c2ccc3c(c2)CC[C@H]3NC(=O)c2cnn(C)c2)no1` [Compound 184, (R)—N-(5-(5-ethyl-1,2,4-oxadiazol-3-yl)-2,3-dihydro-1H-inden-1-yl)-1-methyl-1H-pyrazole-4-carboxamide], the inhibition at 5 µM in experiment [2] amounted to 67.4%. The IC50 (in general, the concentration at which inhibition is half-maximal) in experiment [4] is 7.2 ± 0.2 µM; in experiment [3] it was 7.9 µM. Besides, the results for the inhibition in vivo at 2 mg/kg in experiment [3] (setting [5]) and in experiment [3] (setting [6]) were 43 ± 9% and 31 ± 9%, respectively. The 10% effect concentration (IC10) in experiment [3] is 0.8 µM.
With `CCc1nc(-c2ccc3c(c2)CC[C@H]3NC(=O)c2cnn(CCO)c2)no1` [Compound 474, (R)—N-(5-(5-ethyl-1,2,4-oxadiazol-3-yl)-2,3-dihydro-1H-inden-1-yl)-1-(2-hydroxyethyl)-1H-pyrazole-4-carboxamide], in experiment [1], the “CDMF75 IC15” value came out at 0.6 µM and the half-maximal inhibitory concentration (IC50) was determined as 2200 nM. For the same molecule, the inhibition at 10 µM in experiment [2] was 75.2%. For the same molecule, the inhibition in vivo at 6 mg/kg in experiment [3] (setting [5]) came out at 64 ± 8%. Further, in experiment [3], the IC50 was 1.4 µM and the 10% effect concentration (IC10) was 0.2 µM. For the same molecule, in experiment [3] (setting [6]), the inhibition in vivo at 6 mg/kg is 27 ± 6%.
For the molecule `Cn1nccc1C(=O)N[C@@H]1COc2cc(-c3noc(C(F)F)n3)ccc21` [Compound 124, (S)—N-(6-(5-(difluoromethyl)-1,2,4-oxadiazol-3-yl)-2,3-dihydrobenzofuran-3-yl)-1-methyl-1H-pyrazole-5-carboxamide], in experiment [1], the “CDMF75 IC15” value was determined as 0.3 µM and the IC50 amounted to 900 nM. Moreover, in experiment [2], the inhibition at 10 µM turned out to be 84.6%. Moreover, in experiment [4], the IC50 was 0.7 ± 0.02 µM.
Regarding `Cn1nnc(C(=O)N[C@@H]2CCc3cc(-c4noc(C(F)F)n4)ccc32)n1` [Compound 82, (R)-N-(5-(5-(difluoromethyl)-1,2,4-oxadiazol-3-yl)-2,3-dihydro-1H-inden-1-yl)-2-methyl-2H-tetrazole-5-carboxamide], in experiment [1], the “CDMF75 IC15” value came to 0.5 µM and the IC50 came out at 2000 nM. Also, the inhibition at 10 µM in experiment [2] was 89.6%. In addition, the inhibition in vivo at 10 mg/kg in experiment [3] (setting [5]) was determined as 65 ± 6%. Moreover, in experiment [3], the IC50 is 4.9 µM and the IC10 is 1.5 µM. Also, the inhibition in vivo at 10 mg/kg in experiment [3] (setting [6]) was found to be 55 ± 8%.
Consider `Cc1ncc(C(=O)N[C@@H]2CCc3cc(-c4noc(C(F)F)n4)ccc32)o1` [Compound 100, (R)—N-(5-(5-(difluoromethyl)-1,2,4-oxadiazol-3-yl)-2,3-dihydro-1H-inden-1-yl)-2-methyloxazole-5-carboxamide], for which, in experiment [1], the “CDMF75 IC15” value came out at 0.7 µM. The concentration for half-maximal inhibition (IC50) was 3000 nM in experiment [1], 8.1 ± 0.26 µM in experiment [4] and 9.1 µM in experiment [3]. For the same molecule, in experiment [2], the inhibition at 5 µM was 54.7%. The inhibition in vivo at 6 mg/kg in experiment [3] (setting [5]) came to 60 ± 4%; in experiment [3] (setting [6]) it was 40 ± 3%. Moreover, the 10% effect concentration (IC10) in experiment [3] is 2.3 µM.
